The subject of data set [1] is MDM2 alternative splicing in Rh18 cells. Put plainly: In vitro alternative splicing assay (MDM2, RT-PCR). It is filed as cell-based. The note with it: Rh18, 8 h, PCR (FIG. 9).
The next data set has as its system HeLa. Put plainly: Drug combination assay, HeLa. It is filed as cell-based. The note with it: HeLa cells; combined with AUDA (15 μM). The protocol: Preliminary cytotoxic screenings for each drug used in drug combination assays were performed to determine their cytotoxic dose range. […] Eight concentrations were established by 1:3 serial dilutions of the single drugs and their combinations with the splicing modulators. All drug concentrations were evaluated in triplicate in 96-well cell culture plates. Assays of individual drugs and drug combinations were run on the same tissue culture plate. Cell viability was determined using the CellTiter-Glo reagent. Drug interactions, in terms of synergism, additive effect, or antagonism, were based on the drugs' Combination Index (CI) (Chou et al., Adv. Enzyme Regul. 1984, 22, 27).
Luminescence data obtained from the cell viability determinations were formatted per the requirements of the analytical software (viability data range: >0 and <1). The formatted data were analyzed with the software CalcuSyn 2.1 (Biosoft, Cambridge, UK), which provides quantitative CI values for the drug interaction analyses (see ranges in Supplementary Table S2). […] Therefore, in these two cases the drug interaction was evaluated by comparing the IC50 value of Sudemycin with that of the IC50 values resulting from the serial dilutions of the splicing modulator combined with a constant dose of the non-toxic drug.

A short description of data set [2]: Maximum tolerated dose study (weight loss). It is filed as in vivo, C.B-17 scid mice. The note with it: 50 mg/kg four hour infusion daily for five days; day 5 of infusion. The method, then:
Xenograft tumors were first established from an SK-MEL-2 cell culture at the St. Jude Children's Research Hospital Xenograft Core. After these tumors were established as a mouse xenograft model, they were routinely maintained in the C.B-17 scid strain (Taconic Farms, Germantown, N.Y.). Experimental animals were prepared by transplanting small pieces of dissected tumors from donor animals into recipient mice. All animal studies were performed in accordance with the St. Jude Children's Research Hospital Animal Care and Use Committee. SK-MEL-2 xenograft tumors were transplanted into male C.B-17 scid mice on Day −21. On Days −7 to −5, a jugular vein catheter was surgically implanted into each mouse. […] Tumors were continuously measured during and after infusion periods, 5 times per week (weekdays). Tumor volumes were determined based on the following equation: Tuvol=(δ1/2+δ2/2)^1.5708, where δ1 and δ2 are diameters measured with a caliper at right angles of each other. […]
The in vivo effects, e.g. weight loss, of compound 20 were evaluated in mice using the methods described herein above. […] Weight of the test animals was determined daily (5 weight measurements/week). […]

From patent US9682993B2, “Anticancer compounds” (ST. JUDE CHILDREN'S RESEARCH HOSPITAL, priority 2012, dated 2017) come the findings set out here.

On to `CNC(=O)O[C@@H](C)/C=C\C(=O)N[C@H]1CC[C@@H](C/C=C(C)/C=C/[C@@H]2C[C@]3(CO3)CC(C)(C)O2)CC1` [compound 20, (S,Z)-5-(((1R,4R)-4-((2E,4E)-5-((3R,5S)-7,7-Methyl-1,6-Dioxaspiro[2.5]Octan-5-Yl)-3-Methylpenta-2,4-Dien-1-Yl)Cyclohexyl)Amino)-5-Oxopent-3-En-2-Yl Methylcarbamate], for which the “alternative MDM2 splicing” value in data set [1] is recorded as “induction of alternative MDM2 splicing”. In addition, the “effect of soluble epoxide hydrolase inhibition on IC50” value with HeLa was “improves the IC50”. The average weight loss in data set [2] was found to be 12.7%.
